Measurements reported in patent publication US8431593B2, “Heteroaryl amide derivatives” (H. Lundbeck A/S, priority 2006, dated 2013).

Target: T1, P2X7 receptor (Homo sapiens, UniProt Q99572)
T1 construct: host or cells: SH-SY5Y
T1 sequence (Q99572 1-595): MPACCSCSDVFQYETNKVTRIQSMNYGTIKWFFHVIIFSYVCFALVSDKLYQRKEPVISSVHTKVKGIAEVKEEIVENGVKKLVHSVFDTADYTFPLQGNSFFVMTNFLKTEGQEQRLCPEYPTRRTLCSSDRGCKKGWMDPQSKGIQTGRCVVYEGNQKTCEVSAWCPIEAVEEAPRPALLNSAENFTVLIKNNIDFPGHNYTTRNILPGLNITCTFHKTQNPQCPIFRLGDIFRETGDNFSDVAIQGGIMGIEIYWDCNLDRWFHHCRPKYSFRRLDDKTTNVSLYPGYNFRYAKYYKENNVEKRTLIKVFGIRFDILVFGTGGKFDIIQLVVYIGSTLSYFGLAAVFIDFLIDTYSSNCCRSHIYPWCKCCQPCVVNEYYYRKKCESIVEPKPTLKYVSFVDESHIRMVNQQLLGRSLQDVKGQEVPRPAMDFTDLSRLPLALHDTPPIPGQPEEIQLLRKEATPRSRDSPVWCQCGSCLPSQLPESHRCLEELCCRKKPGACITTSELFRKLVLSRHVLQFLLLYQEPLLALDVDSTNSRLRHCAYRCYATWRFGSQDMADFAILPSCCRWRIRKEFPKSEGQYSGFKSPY
Test: P2X7 calcium mobilization assay, high throughput, antagonist activity (Example 4A)
Format: cell-based
Conditions: 50% decrease in the fluorescence response of cells exposed to 80 μM of 2′(3′)-O-(4-benzoyl-benzoyl)adenosine 5′-triphosphate; determined as in Example 4A; read-out: IC50
Method in brief: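 FLIPR^TETRA calcium read-out: maximum RFU per well minus average no-agonist control, with agonist wells giving the average positive maximum. Cells seeded at 100,000/well one day ahead, dye-loaded 1 h, rinsed, then exposed to compound for 1 h at room temperature.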

Structure (SMILES)	IC50 [nM]
O=C(NCC12CC3CC(CC(C3)C1)C2)c1cccc2nc(C3(C(=O)O)CCCC3)cn12 [Compound 850, 1-{5-[(adamantan-1-ylmethyl)carbamoyl]imidazo [1,2-a]pyridin-2-yl} cyclopentane-carboxylic acid]	< 2000
O=C(NCC12CC3CC(CC(C3)C1)C2)c1cccc2nc(C3(C(=O)O)CCCCC3)cn12 [Compound 851, 1-{5-[(adamantan-1-ylmethyl)carbamoyl]imidazo [1,2-a]pyridin-2-yl} cyclohexane-carboxylic acid]	< 2000
O=C(Cc1cn2c(C(=O)NCC34CC5CC(CC(C5)C3)C4)cccc2n1)N[C@H]1CCCNC1 [Compound 852, N-(adamantan-1-ylmethyl)-2-{2-oxo-2-[(3S)-piperidin-3-ylamino]ethyl} imidazo [1,2-a]pyridine-5-carboxamide]	< 2000
O=C(NCC12CC3CC(CC(C3)C1)C2)c1cccc2nc(CSc3nnn[nH]3)cn12 [Compound 853, N-(adamantan-1-ylmethyl)-2-[(1H-tetrazol-5-ylthio)methyl] imidazo [1,2-a]pyridine-5-carboxamide]	< 2000
CC(C)CC(CNC(=O)c1cccc2nc(C(=O)n3ccc(N)n3)cn12)c1ccc(Cl)cc1 (stereo not shown) [Compound 854, 2-[(3-amino-1H-pyrazol-1-yl)carbonyl]-N-[2-(4-chlorophenyl)-4-methylpentyl] imidazo [1,2-a]pyridine-5-carboxamide]	< 2000
O=C(NCC12CC3CC(CC(C3)C1)C2)c1cccc2nc(Cn3nnnc3CCO)cn12 [Compound 855, N-(adamantan-1-ylmethyl)-2-{[5-(2-hydroxyethyl)-1H-tetrazol-1-yl]methyl}imidazo [1,2-a]pyridine-5-carboxamide]	< 2000
CC(O)CNC(=O)Cc1cn2c(C(=O)NCC3(c4cccnc4)CCCCC3)cccc2n1 (stereo not shown) [Compound 857, 2-{2-[(2-hydroxypropyl)amino]-2-oxoethyl}-N-[(1-pyridin-3-ylcyclohexyl)methyl] imidazo[1,2-a] pyridine-5-carboxamide]	< 2000
CC(O)CNC(=O)Cc1cn2c(C(=O)NCC3(c4ccc(Cl)cc4)CCCCC3)cccc2n1 (stereo not shown) [Compound 858, N-{[1-(4-chlorophenyl)cyclohexyl]methyl}-2-{2-[(2-hydroxypropyl)amino]-2-oxoethyl} imidazo[1,2-a]pyridine-5-carboxamide]	< 2000
O=C(Cc1cn2c(C(=O)NCC3(c4ccc(C(F)(F)F)cc4)CCCCC3)cccc2n1)NCC1CC1 [Compound 860, 2-{2-[(cyclopropylmethyl)amino]-2-oxoethyl}-N-({1-[4-(trifluoromethyl)phenyl]cyclohexyl}methyl) imidazo[1,2-a] pyridine-5-carboxamide]	< 2000
O=C(Cc1cn2c(C(=O)NCC3(c4ccc(Cl)cc4)CCCCC3)cccc2n1)NCC1CC1 [Compound 862, N-{[1-(4-chlorophenyl)cyclohexyl]methyl}-2-{2-[(cyclopropylmethyl)amino]-2-oxoethyl} imidazo[1,2-a] pyridine-5-carboxamide]	< 2000
CC(O)CNC(=O)Cc1cn2c(C(=O)NCC3(c4ccc(C(F)(F)F)cc4)CCCCC3)cccc2n1 (stereo not shown) [Compound 864, 2-{2-[(2-hydroxypropyl)amino]-2-oxoethyl}-N-({1-[4-(trifluoromethyl)phenyl]cyclohexyl}methyl) imidazo[1,2-a] pyridine-5-carboxamide]	< 2000
O=C(Cc1cn2c(C(=O)NCC3(c4cccnc4)CCCCC3)cccc2n1)NC1CCCC1 [Compound 865, 2-[2-(cyclopentylamino)-2-oxoethyl]-N-[(1-pyridin-3-ylcyclohexyl)methyl] imidazo[1,2-a] pyridine-5-carboxamide]	< 2000
O=C(Cc1cn2c(C(=O)NCC3(c4ccc(Cl)cc4)CCCCC3)cccc2n1)NC1CCCC1 [Compound 866, N-{[1-(4-chlorophenyl)cyclohexyl]methyl}-2-[2-(cyclopentylamino)-2-oxoethyl]imidazo [1,2-a]pyridine-5-carboxamide]	< 2000
CCC(C)NC(=O)Cc1cn2c(C(=O)NCC3(c4ccc(C(F)(F)F)cc4)CCCCC3)cccc2n1 (stereo not shown) [Compound 868, 2-[2-(sec-butylamino)-2-oxoethyl]-N-({1-[4-(trifluoromethyl)phenyl]cyclohexyl}methyl) imidazo[1,2-a] pyridine-5-carboxamide]	< 2000
CCC(C)NC(=O)Cc1cn2c(C(=O)NCC3(c4cccnc4)CCCCC3)cccc2n1 (stereo not shown) [Compound 869, 2-[2-(sec-butylamino)-2-oxoethyl]-N-[(1-pyridin-3-ylcyclohexyl)methyl] imidazo[1,2-a] pyridine-5-carboxamide]	< 2000
CCC(C)NC(=O)Cc1cn2c(C(=O)NCC3(c4ccc(Cl)cc4)CCCCC3)cccc2n1 (stereo not shown) [Compound 870, 2-[2-(sec-butylamino)-2-oxoethyl]-N-{[1-(4-chlorophenyl)cyclohexyl]methyl}imidazo [1,2-a]pyridine-5-carboxamide]	< 2000
CC(C)(C)CCNC(=O)Cc1cn2c(C(=O)NCC3(c4ccc(Cl)cc4)CCCCC3)cccc2n1 [Compound 871, N-{[1-(4-chlorophenyl)cyclohexyl]methyl}-2-{2-[(3,3-dimethylbutyl)amino]-2-oxoethyl} imidazo[1,2-a] pyridine-5-carboxamide]	< 2000
O=C(Cc1cn2c(C(=O)NCC3(c4ccc(Cl)cc4)CCOCC3)cccc2n1)NCC(F)(F)F [Compound 872, N-{[4-(4-chlorophenyl)tetrahydro-2H-pyran-4-yl]methyl}-2-{2-oxo-2-[(2,2,2-trifluoroethyl)amino]ethyl}imidazo [1,2-a]pyridine-5-carboxamide]	< 2000
O=C(Cc1cn2c(C(=O)NCC3(c4ccc(C(F)(F)F)cc4)CCCCC3)cccc2n1)NCC(F)(F)F [Compound 873, 2-{2-oxo-2-[(2,2,2-trifluoroethyl)amino]ethyl}-N-({1-[4-(trifluoromethyl)phenyl]cyclohexyl}methyl) imidazo[1,2-a] pyridine-5-carboxamide]	< 2000
O=C(Cc1cn2c(C(=O)NCC3(c4cccnc4)CCCCC3)cccc2n1)NCC(F)(F)F [Compound 874, 2-{2-oxo-2-[(2,2,2-trifluoroethyl)amino]ethyl}-N-[(1-pyridin-3-ylcyclohexyl)methyl] imidazo[1,2-a] pyridine-5-carboxamide]	< 2000
O=C(Cc1cn2c(C(=O)NCC3(c4ccc(Cl)cc4)CCCCC3)cccc2n1)NCC(F)(F)F [Compound 875, N-{[1-(4-chlorophenyl)cyclohexyl]methyl}-2-{2-oxo-2-[(2,2,2-trifluoroethyl)amino]ethyl} imidazo[1,2-a] pyridine-5-carboxamide]	< 2000
O=C(Cc1cn2c(C(=O)NCC3(c4ccc(C(F)(F)F)cc4)CCCCC3)cccc2n1)NC1CCCC1 [Compound 877, 2-[2-(cyclopentylamino)-2-oxoethyl]-N-({1-[4-(trifluoromethyl)phenyl]cyclohexyl}methyl) imidazo[1,2-a] pyridine-5-carboxamide]	< 2000
O=C(NCC1(c2ccc(C(F)(F)F)cc2)CCCCC1)c1cccc2nc(CC(=O)N3CCn4cncc4C3)cn12 [Compound 879, 2-[2-(5,6-dihydroimidazo[1,5-a]pyrazin-7(8H)-yl)-2-oxoethyl]-N-({1-[4-(trifluoromethyl)phenyl]cyclohexyl}methyl) imidazo[1,2-a] pyridine-5-carboxamide]	< 2000
O=C(NCC1(c2ccc(Cl)cc2)CCCCC1)c1cccc2nc(CC(=O)N3CCn4cncc4C3)cn12 [Compound 881, N-{[1-(4-chlorophenyl)cyclohexyl]methyl}-2-[2-(5,6-dihydroimidazo[1,5-a]pyrazin-7(8H)-yl)-2-oxoethyl]imidazo[1,2-a]pyridine-5-carboxamide]	< 2000
CC(C)(C)CCNC(=O)Cc1cn2c(C(=O)NCC3(c4ccc(Cl)cc4)CCOCC3)cccc2n1 [Compound 882, N-{[4-(4-chlorophenyl)tetrahydro-2H-pyran-4-yl]methyl}-2-{2-[(3,3-dimethylbutyl)amino]-2-oxoethyl}imidazo[1,2-a]pyridine-5-carboxamide]	< 2000
CC(C)(C)CCNC(=O)Cc1cn2c(C(=O)NCC3(c4ccc(C(F)(F)F)cc4)CCCCC3)cccc2n1 [Compound 883, 2-{2-[(3,3-dimethylbutyl)amino]-2-oxoethyl}-N-({1-[4-(trifluoromethyl)phenyl]cyclohexyl}methyl) imidazo[1,2-a] pyridine-5-carboxamide]	< 2000
CC(C)(C)CCNC(=O)Cc1cn2c(C(=O)NCC3(c4cccnc4)CCCCC3)cccc2n1 [Compound 884, 2-{2-[(3,3-dimethylbutyl)amino]-2-oxoethyl}-N-[(1-pyridin-3-ylcyclohexyl)methyl] imidazo[1,2-a] pyridine-5-carboxamide]	< 2000
CC(C)N1CCN(C(=O)Cc2cn3c(C(=O)NCC4(c5ccc(C(F)(F)F)cc5)CCCCC4)cccc3n2)CC1 [Compound 885, 2-[2-(4-isopropylpiperazin-1-yl)-2-oxoethyl]-N-({1-[4-(trifluoromethyl)phenyl]cyclohexyl}methyl) imidazo[1,2-a] pyridine-5-carboxamide]	< 2000
